The source of these data is ChEMBL document CHEMBL6078695, “Design, synthesis, and biological evaluations of 5-aryl-pyrazole-3-carboxamide derivatives as selective CB2 receptor agonists for the treatment of colitis” (Eur J Med Chem, 2025).

The source made the active and inactive calls. The rule behind the calls is not given here.

Common to all, as to format: functional, cell-based
The target of experiment [1] is T1, Cannabinoid receptor 2 (Homo sapiens, UniProt P34972). Kind of experiment: Antagonist activity at human CB2 receptor expressed in CHO-K1 cells co-transfected with human Galpha16 assessed as intracellular calcium flux. (Calcium flux is commonly read through the fluorescence of an indicator in the cells.)
T1 sequence (P34972 whole entry): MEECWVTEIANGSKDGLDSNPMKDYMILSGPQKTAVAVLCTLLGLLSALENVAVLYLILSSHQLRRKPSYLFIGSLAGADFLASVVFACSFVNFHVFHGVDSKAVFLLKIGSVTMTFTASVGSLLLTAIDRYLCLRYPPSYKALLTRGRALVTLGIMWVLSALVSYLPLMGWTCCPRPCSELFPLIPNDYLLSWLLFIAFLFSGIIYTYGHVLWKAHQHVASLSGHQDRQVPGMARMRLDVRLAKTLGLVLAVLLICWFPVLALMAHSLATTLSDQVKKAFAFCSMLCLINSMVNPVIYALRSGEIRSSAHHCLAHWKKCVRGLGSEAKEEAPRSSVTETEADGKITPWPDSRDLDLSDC
Experiment [2] has as its target T1, Cannabinoid receptor 2. Kind of experiment: Agonist activity at human CB2 receptor expressed in CHO-K1 cells co-transfected with human Galpha16 assessed as intracellular calcium flux at 10 uM relative to control. The note with it: filed as agonist.
In experiment [3] the target is T2, Cannabinoid receptor 1 (Homo sapiens, UniProt P21554). Kind of experiment: Agonist activity at human CB1 receptor expressed in CHO-K1 cells co-transfected with human Galpha16 assessed as intracellular calcium flux at 10 uM relative to control.
T2 sequence (P21554 whole entry): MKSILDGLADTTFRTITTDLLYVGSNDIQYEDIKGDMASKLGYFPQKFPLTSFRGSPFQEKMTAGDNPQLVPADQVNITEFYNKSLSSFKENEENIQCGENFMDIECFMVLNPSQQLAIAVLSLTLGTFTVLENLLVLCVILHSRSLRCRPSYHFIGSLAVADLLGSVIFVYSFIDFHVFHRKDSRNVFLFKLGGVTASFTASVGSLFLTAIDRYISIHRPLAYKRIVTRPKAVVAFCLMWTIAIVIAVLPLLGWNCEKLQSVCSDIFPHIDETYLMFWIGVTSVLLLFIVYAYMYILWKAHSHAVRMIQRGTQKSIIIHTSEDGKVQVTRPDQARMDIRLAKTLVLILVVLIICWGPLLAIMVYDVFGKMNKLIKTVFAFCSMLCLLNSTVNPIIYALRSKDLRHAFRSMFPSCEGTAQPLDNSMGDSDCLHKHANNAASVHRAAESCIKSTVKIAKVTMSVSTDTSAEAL
Experiment [4] concerns the target T2, Cannabinoid receptor 1. Kind of experiment: Agonist activity at human CB1 receptor expressed in CHO-K1 cells co-transfected with human Galpha16 assessed as intracellular calcium flux.
For experiment [5], the target named is T1, Cannabinoid receptor 2. Kind of experiment: Agonist activity at human CB2 receptor expressed in CHO-K1 cells co-transfected with human Galpha16 assessed as intracellular calcium flux.
Experiment [6] concerns the target T2, Cannabinoid receptor 1. Briefly: Antagonist activity at human CB1 receptor expressed in CHO-K1 cells co-transfected with human Galpha16 assessed as intracellular calcium flux.
The target in experiment [7] is T1, Cannabinoid receptor 2. Briefly: Agonist activity at human CB2 receptor expressed in CHO-K1 cells co-transfected with human Galpha16 assessed as intracellular calcium flux at 10 uM.
The target of experiment [8] is T1, Cannabinoid receptor 2. Kind of experiment: Partial agonist activity at human CB2 receptor expressed in CHO-K1 cells co-transfected with human Galpha16 assessed as intracellular calcium flux at 10 uM.

By IC50 is commonly meant the concentration needed to halve the response being measured. In general, Emax refers to the greatest response seen or fitted, relative to the assay's reference. In general, EC50 refers to the concentration at which the effect is half-maximal. On to `CCCCCn1nc(C(=O)NC(C)(C)CO)cc1-c1sccc1C`, for which the IC50 at Cannabinoid receptor 2 [1] and on Cannabinoid receptor 1 [6] was more than 100 µM in each case. In addition, the Emax on Cannabinoid receptor 2 [2] was 85%; at Cannabinoid receptor 1 [3] it was 30%. Further, the EC50 at Cannabinoid receptor 1 [4] came to 0.424 µM; at Cannabinoid receptor 2 [5], 0.274 µM.
Consider `CCCCCn1nc(C(=O)NC(C)(C)CO)cc1-c1nccn1C`, for which the IC50 on Cannabinoid receptor 2 [1] and on Cannabinoid receptor 1 [6] was more than 100 µM throughout. Moreover, the concentration for a half-maximal effect (EC50) on Cannabinoid receptor 1 [4] and on Cannabinoid receptor 2 [5] was more than 100 µM each time.
`CCCCn1nc(C(=O)NC(C)(C)CO)cc1-c1cncs1`: the IC50 at Cannabinoid receptor 2 [1] and at Cannabinoid receptor 1 [6] was more than 100 µM each time. At Cannabinoid receptor 2 [7], the outcome was inactive. Moreover, the EC50 on Cannabinoid receptor 1 [4] and at Cannabinoid receptor 2 [5] was more than 100 µM in each case.
For `CCCCCn1nc(-c2ccco2)cc1C(=O)NC(C)(C)CO`, the EC50 on Cannabinoid receptor 1 [4] and on Cannabinoid receptor 2 [5] was more than 100 µM each time. At Cannabinoid receptor 1 [6], the IC50 is more than 100 µM.
For `CCCCCn1nc(C(=O)NC(C)(C)CO)cc1-c1cccn1C`, the Emax on Cannabinoid receptor 2 [2] was 90%. For the same compound, the results for the 50% effective concentration (EC50) at Cannabinoid receptor 1 [4] and on Cannabinoid receptor 2 [5] were more than 100 µM and 0.0479 µM, respectively. At Cannabinoid receptor 1 [6], the IC50 was more than 100 µM.
As to `CCCCCn1nc(C(=O)NC(C)(C)CO)cc1-c1ccc(Cl)s1`, the results for the IC50 at Cannabinoid receptor 2 [1] and at Cannabinoid receptor 1 [6] were 0.0322 µM and more than 100 µM, respectively. Further, the concentration giving a half-maximal response (EC50) at Cannabinoid receptor 1 [4] and on Cannabinoid receptor 2 [5] was more than 100 µM in each case.
Consider `CCCCCn1nc(-c2cccn2CC)cc1C(=O)NC(C)(C)CO`, for which the 50% effective concentration (EC50) on Cannabinoid receptor 1 [4] and on Cannabinoid receptor 2 [5] was more than 100 µM throughout. Besides, the IC50 on Cannabinoid receptor 1 [6] was more than 100 µM.
Take `CCCCCn1nc(-c2cccn2C)cc1C(=O)NC(C)(C)CO`: the EC50 at Cannabinoid receptor 1 [4] and on Cannabinoid receptor 2 [5] was more than 100 µM throughout. Further, the IC50 on Cannabinoid receptor 1 [6] is more than 100 µM.
Regarding `CCCCn1nc(C(=O)NC(C)(C)CO)cc1-c1cccn1C(C)C`, the IC50 at Cannabinoid receptor 2 [1] and on Cannabinoid receptor 1 [6] was more than 100 µM throughout. Besides, the result on Cannabinoid receptor 2 [7] was inactive. For the same compound, the concentration for a half-maximal effect (EC50) on Cannabinoid receptor 1 [4] and at Cannabinoid receptor 2 [5] was more than 100 µM each time. Besides, the Activity result at Cannabinoid receptor 2 [8] (filed as partial agonist) is “Weak_effect”.
On to `CC(C)(CO)NC(=O)c1cc(-c2cccs2)n(-c2ccc(F)cc2)n1`, for which the IC50 on Cannabinoid receptor 2 [1] and on Cannabinoid receptor 1 [6] was more than 100 µM each time. Moreover, at Cannabinoid receptor 2 [2], the Emax is 48%. Further, the figures for the EC50 at Cannabinoid receptor 1 [4] and on Cannabinoid receptor 2 [5] were more than 100 µM and 0.852 µM, respectively. Further, the Activity entry on Cannabinoid receptor 2 [8] (filed as partial agonist) was “Weak_effect”.
As for `CCCCCCn1nc(C(=O)NC(C)(C)CO)cc1-c1cccs1`, the concentration for half-maximal inhibition (IC50) on Cannabinoid receptor 2 [1] and at Cannabinoid receptor 1 [6] was more than 100 µM throughout. Besides, the maximal response (Emax) at Cannabinoid receptor 2 [2] turned out to be 72%. In addition, the 50% effective concentration (EC50) at Cannabinoid receptor 1 [4] is more than 100 µM; on Cannabinoid receptor 2 [5], 0.0195 µM.
For the compound `CCCCCn1nc(C(=O)NC(C)(C)CO)cc1-c1sccc1Cl`, the half-inhibitory concentration (IC50) at Cannabinoid receptor 2 [1] and at Cannabinoid receptor 1 [6] was more than 100 µM each time. The Emax at Cannabinoid receptor 2 [2] was 76%. Moreover, the EC50 at Cannabinoid receptor 1 [4] is more than 100 µM; on Cannabinoid receptor 2 [5], 0.0215 µM.
As for `CC(C)(CO)NC(=O)c1cc(-c2cccs2)n(-c2ccc(Cl)cc2)n1`, the IC50 on Cannabinoid receptor 2 [1] and at Cannabinoid receptor 1 [6] was more than 100 µM each time. Moreover, at Cannabinoid receptor 2 [2], the maximal response (Emax) worked out at 82%. Besides, the EC50 is more than 100 µM at Cannabinoid receptor 1 [4] and 0.788 µM at Cannabinoid receptor 2 [5]. For the same compound, the Activity entry on Cannabinoid receptor 2 [8] (filed as partial agonist) was “Weak_effect”.
`CCCCCn1nc(C(=O)NC(C)(C)CO)cc1-c1cccs1`: the Emax at Cannabinoid receptor 2 [2] was 95%; at Cannabinoid receptor 1 [3] (filed as agonist), 70%. The EC50 stood at 0.593 µM at Cannabinoid receptor 1 [4] and 0.0088 µM on Cannabinoid receptor 2 [5]. Besides, the IC50 on Cannabinoid receptor 1 [6] was more than 100 µM.
With `CCCCCn1nc(C(=O)NC(C)(C)CO)cc1-c1cc(Cl)cs1`, the IC50 on Cannabinoid receptor 2 [1] is 0.0346 µM; on Cannabinoid receptor 1 [6], more than 100 µM. For the same compound, the EC50 at Cannabinoid receptor 1 [4] and at Cannabinoid receptor 2 [5] was more than 100 µM each time.
With `COCCn1nc(C(=O)NC(C)(C)CO)cc1-c1cccs1`, the concentration for half-maximal inhibition (IC50) on Cannabinoid receptor 2 [1] and on Cannabinoid receptor 1 [6] was more than 100 µM throughout. At Cannabinoid receptor 2 [2], the Emax is 46%. For the same compound, the result on Cannabinoid receptor 2 [7] (filed as agonist) was Active. Moreover, the EC50 was more than 100 µM on Cannabinoid receptor 1 [4] and 0.128 µM on Cannabinoid receptor 2 [5].
Take `CCCCCn1nc(C(=O)NC(C)(C)CO)cc1-c1ccnn1C`: the IC50 at Cannabinoid receptor 2 [1] and at Cannabinoid receptor 1 [6] was more than 100 µM in each case. Further, the EC50 on Cannabinoid receptor 1 [4] and at Cannabinoid receptor 2 [5] was more than 100 µM each time.
For `CCCCCn1nc(C(=O)NC(C)(C)CO)cc1-c1ccc(C)s1`, the IC50 was 0.0282 µM at Cannabinoid receptor 2 [1] and more than 100 µM at Cannabinoid receptor 1 [6]. In addition, the EC50 at Cannabinoid receptor 1 [4] and on Cannabinoid receptor 2 [5] was more than 100 µM throughout.
In the case of `CCCCCn1nc(C(=O)NC(C)(C)CO)cc1-c1cc(C)cs1`, the results for the IC50 on Cannabinoid receptor 2 [1] and at Cannabinoid receptor 1 [6] were 0.0685 µM and more than 100 µM, respectively. The 50% effective concentration (EC50) at Cannabinoid receptor 1 [4] and at Cannabinoid receptor 2 [5] was more than 100 µM throughout.
For `COc1ccc(-n2nc(C(=O)NC(C)(C)CO)cc2-c2cccs2)cc1`, the IC50 on Cannabinoid receptor 2 [1] and on Cannabinoid receptor 1 [6] was more than 100 µM each time. The EC50 at Cannabinoid receptor 1 [4] and at Cannabinoid receptor 2 [5] was more than 100 µM each time. Besides, at Cannabinoid receptor 2 [8], the result was inactive.
With `CCCCCn1nc(C(=O)NC(C)(C)CO)cc1-c1ccsc1`, the IC50 on Cannabinoid receptor 2 [1] and at Cannabinoid receptor 1 [6] was more than 100 µM in each case. In addition, the Emax on Cannabinoid receptor 2 [2] amounted to 50%. The figures for the EC50 on Cannabinoid receptor 1 [4] and on Cannabinoid receptor 2 [5] were more than 100 µM and 0.141 µM, respectively.
Turning to `CCCCCn1nc(-c2cccs2)cc1C(=O)NC(C)(C)CO`, the EC50 on Cannabinoid receptor 1 [4] and on Cannabinoid receptor 2 [5] was more than 100 µM each time. The IC50 at Cannabinoid receptor 1 [6] was more than 100 µM.
As for `COc1ccc(C(=O)c2c(C)n(CCN3CCOCC3)c3cc(I)ccc23)cc1`, at Cannabinoid receptor 2 [1], the IC50 is 0.179 µM. The EC50 at Cannabinoid receptor 2 [5] is more than 100 µM.
Turning to `Cc1ccc(-n2nc(C(=O)NC(C)(C)CO)cc2-c2cccs2)cc1`, the IC50 at Cannabinoid receptor 2 [1] and at Cannabinoid receptor 1 [6] was more than 100 µM each time. Besides, at Cannabinoid receptor 2 [2], the Emax was 45%. For the same compound, the EC50 at Cannabinoid receptor 1 [4] was more than 100 µM; at Cannabinoid receptor 2 [5], 1.04 µM. On Cannabinoid receptor 2 [8] (filed as partial agonist), the Activity result is “Weak_effect”.
For `CC(C)(CO)NC(=O)c1cc(-c2cccs2)n(CC2CC2)n1`, the IC50 at Cannabinoid receptor 2 [1] and on Cannabinoid receptor 1 [6] was more than 100 µM throughout. In addition, the maximal response (Emax) at Cannabinoid receptor 2 [2] was determined as 55%. On Cannabinoid receptor 2 [7] (filed as agonist), the result was Active. Besides, the EC50 was more than 100 µM at Cannabinoid receptor 1 [4] and 0.174 µM on Cannabinoid receptor 2 [5].
For `CCCCn1nc(C(=O)NC(C)(C)CO)cc1-c1ccn(C)c1`, the IC50 on Cannabinoid receptor 2 [1] and on Cannabinoid receptor 1 [6] was more than 100 µM throughout. Also, the outcome at Cannabinoid receptor 2 [7] was inactive. The EC50 at Cannabinoid receptor 1 [4] and on Cannabinoid receptor 2 [5] was more than 100 µM in each case.
For `CCCCCn1nc(C(=O)NC(C)(C)CO)cc1-c1nccs1`, the IC50 at Cannabinoid receptor 2 [1] and at Cannabinoid receptor 1 [6] was more than 100 µM throughout. Besides, the concentration giving a half-maximal response (EC50) at Cannabinoid receptor 1 [4] and at Cannabinoid receptor 2 [5] was more than 100 µM throughout.
For `CCCCCn1nc(C(=O)NC(C)(C)CO)cc1-c1cccn1CC`, the IC50 at Cannabinoid receptor 2 [1] and on Cannabinoid receptor 1 [6] was more than 100 µM throughout. Also, the maximal response (Emax) at Cannabinoid receptor 2 [2] was 76%; at Cannabinoid receptor 1 [3] (filed as agonist) it was 90%. Also, the EC50 on Cannabinoid receptor 1 [4] turned out to be 0.0375 µM; at Cannabinoid receptor 2 [5], 0.0077 µM.
